# Measurements reported in ChEMBL document CHEMBL1201862, “PubChem BioAssay data set” (2004).
#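 Exposure lasted 48 hours, with cells grown in 96-well plates and compounds tested at five concentrations. GI50: concentration for 50% inhibition of growth.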 Active and inactive are the calls of the source. Rule as the data show it: active = GI50 up to about 1.1 µM and inactive = higher. Where a SMILES comes first, the peptide text is derived from it. [ ]: non-standard residue; d: D form. Phe(4-NO2) = N[CH](Cc1ccc([N+](=O)[O-])cc1)C(=O)O
# How the values were obtained:
# Assay in all cases: NCI anticancer screen, dose series, 48 h
# [1] = test system: HOP-92
# [2] = test system: A549
# [3] = test system: DU-145
# [4] = test system: SK-MEL-5
# [5] = test system: RXF 393
# [6] = test system: HCT-15
# [7] = test system: SNB-75
# [8] = test system: SN12C
# [9] = test system: SF-295
# [10] = test system: OVCAR-8
# [11] = test system: HL-60
# [12] = test system: Hs-578T
# [13] = test system: SW-620
# [14] = test system: NCI-H460
# [15] = test system: T47D
# [16] = test system: M14
# [17] = test system: UACC-62
# [18] = test system: OVCAR-3
# [19] = test system: SF-268
# [20] = test system: SF-539
SMILES,GI50 [1],GI50 [2],GI50 [3],GI50 [4],GI50 [5],GI50 [6],GI50 [7],GI50 [8],GI50 [9],GI50 [10],GI50 [11],GI50 [12],GI50 [13],GI50 [14],GI50 [15],GI50 [16],GI50 [17],GI50 [18],GI50 [19],GI50 [20]
CC12CCCCC1=C(F)C(F)(F)S2 (stereo not given),23.6 µM (inactive),> 79.3 µM (inactive),> 89.1 µM (inactive),46.3 µM (inactive),20.5 µM (inactive),32.7 µM,> 70.6 µM (inactive),> 57.7 µM (inactive),41.9 µM (inactive),35.8 µM (inactive),6.64 µM (inactive),> 21.5 µM (inactive),24.5 µM (inactive),> 100 µM (inactive),26.7 µM (inactive),37.6 µM (inactive),42.4 µM (inactive),19.7 µM (inactive),> 66.4 µM (inactive),> 70.6 µM (inactive)
COC(=O)C(Cc1ccccc1)NS(=O)(=O)c1ccc(-c2c3nc(c(-c4ccc(S(=O)(=O)NC(Cc5ccccc5)C(=O)OC)cc4)c4ccc([nH]4)c(-c4ccc(S(=O)(=O)NC(Cc5ccccc5)C(=O)OC)cc4)c4nc(c(-c5ccc(S(=O)(=O)NC(Cc6ccccc6)C(=O)OC)cc5)c5ccc2[nH]5)C=C4)C=C3)cc1 (stereo not given),31.8 µM (inactive),> 100 µM (inactive),> 100 µM (inactive),> 100 µM (inactive),39.4 µM (inactive),> 100 µM,12.5 µM (inactive),> 100 µM (inactive),54.6 µM (inactive),> 100 µM (inactive),> 100 µM (inactive),17.1 µM (inactive),> 100 µM (inactive),85.5 µM (inactive),> 100 µM (inactive),> 100 µM (inactive),> 100 µM (inactive),> 100 µM (inactive),> 100 µM (inactive),> 100 µM (inactive)
CO[C@H]1C[C@H](O[C@H]2CC[C@]3(C=O)[C@H]4CC[C@]5(C)[C@@H](C6=CC(=O)OC6)CC[C@]5(O)[C@@H]4CC[C@]3(O)C2)O[C@H](C)[C@H]1O [CYMARIN],0.341 µM (active),0.0805 µM (active),0.115 µM (active),0.0993 µM (active),0.0467 µM (active),0.192 µM,0.4 µM (active),0.042 µM (active),0.133 µM (active),0.307 µM (active),0.118 µM (active),0.525 µM (active),0.243 µM (active),0.112 µM (active),0.384 µM (active),0.528 µM (active),0.43 µM (active),0.146 µM (active),0.126 µM (active),0.0809 µM (active)
Cc1cccc(-c2cc(O)c3ccc(C)nc3n2)c1,1.14 µM (inactive),0.508 µM (active),0.598 µM (active),0.0895 µM (active),0.456 µM (active),0.194 µM,0.233 µM (active),0.668 µM (active),0.278 µM (active),0.8 µM (active),0.0902 µM (active),0.337 µM (active),0.101 µM (active),0.334 µM (active),0.249 µM (active),0.226 µM (active),0.41 µM (active),0.188 µM (active),0.723 µM (active),0.338 µM (active)
C1=C(c2ccccc2)C(N2CCOCC2)Oc2ccccc21 (stereo not given),> 100 µM (inactive),> 100 µM (inactive),> 100 µM (inactive),> 100 µM (inactive),> 100 µM (inactive),> 100 µM,32.5 µM (inactive),> 100 µM (inactive),> 100 µM (inactive),> 100 µM (inactive),42.7 µM (inactive),> 100 µM (inactive),> 100 µM (inactive),> 100 µM (inactive),> 100 µM (inactive),> 100 µM (inactive),95.3 µM (inactive),> 100 µM (inactive),> 100 µM (inactive),> 100 µM (inactive)
O=C(O)CCC1COc2ccccc2O1 (stereo not given),> 10 µM (inactive),> 10 µM (inactive),> 10 µM (inactive),> 10 µM (inactive),> 10 µM (inactive),> 10 µM,> 10 µM (inactive),> 10 µM (inactive),> 10 µM (inactive),> 10 µM (inactive),> 10 µM (inactive),> 10 µM (inactive),> 10 µM (inactive),> 10 µM (inactive),> 10 µM (inactive),> 10 µM (inactive),> 10 µM (inactive),> 10 µM (inactive),> 10 µM (inactive),> 10 µM (inactive)
O=C1NC2=NOC(=O)NC2=NO1,> 200 µM (inactive),> 200 µM (inactive),> 200 µM (inactive),> 200 µM (inactive),> 200 µM (inactive),> 200 µM,> 200 µM (inactive),> 200 µM (inactive),> 200 µM (inactive),> 200 µM (inactive),> 200 µM (inactive),> 200 µM (inactive),> 200 µM (inactive),> 200 µM (inactive),> 200 µM (inactive),> 200 µM (inactive),> 200 µM (inactive),> 200 µM (inactive),> 200 µM (inactive),> 200 µM (inactive)
C[C@]12CC[C@@H]3c4cc(C=O)c(OCc5ccccc5)cc4CC[C@H]3[C@@H]1CCC2OCc1ccccc1 (stereo not given in full),> 100 µM (inactive),60.7 µM (inactive),> 100 µM (inactive),> 100 µM (inactive),> 100 µM (inactive),> 100 µM,> 100 µM (inactive),> 100 µM (inactive),> 100 µM (inactive),> 100 µM (inactive),> 100 µM (inactive),> 100 µM (inactive),> 100 µM (inactive),> 100 µM (inactive),> 100 µM (inactive),> 100 µM (inactive),> 100 µM (inactive),> 100 µM (inactive),> 100 µM (inactive),> 100 µM (inactive)
Nc1nc(Cl)c2ncn(Cc3cccc(CCl)c3)c2n1,1.64 µM (inactive),13.2 µM (inactive),6.03 µM (inactive),5.7 µM (inactive),2.61 µM (inactive),2.12 µM,9.75 µM (inactive),8.05 µM (inactive),7.01 µM (inactive),3.24 µM (inactive),3.95 µM (inactive),7.03 µM (inactive),3.61 µM (inactive),3.87 µM (inactive),7.36 µM (inactive),3.66 µM (inactive),4.16 µM (inactive),1.33 µM (inactive),5.09 µM (inactive),5.24 µM (inactive)
COc1c2c3c4c(c(OC)c(=O)c5c(O)cc(OC)c(c6c(OC)cc(O)c(c1=O)c63)c54)C(C(C)O)C2C(C)=O (stereo not given),0.225 µM (active),0.353 µM (active),0.641 µM (active),0.138 µM (active),0.06 µM (active),0.652 µM,0.256 µM (active),0.485 µM (active),0.256 µM (active),0.321 µM (active),0.334 µM (active),0.593 µM (active),0.395 µM (active),0.226 µM (active),0.454 µM (active),0.288 µM (active),0.483 µM (active),0.338 µM (active),0.492 µM (active),0.296 µM (active)
CC(NC(=O)C(Cc1ccc([N+](=O)[O-])cc1)NC(=O)C(N)CCCCN)C(=O)NC(Cc1ccc([N+](=O)[O-])cc1)C(N)=O (stereo not given) (H-K[Phe(4-NO2)]A[Phe(4-NO2)]-NH2; configuration not given here),28.3 µM (inactive),23 µM (inactive),53.5 µM (inactive),35.8 µM (inactive),39.2 µM (inactive),56.6 µM,> 37.5 µM (inactive),24.9 µM (inactive),32.7 µM (inactive),23.9 µM (inactive),18.7 µM (inactive),> 68.7 µM (inactive),27.2 µM (inactive),20.6 µM (inactive),> 49.1 µM (inactive),> 50.5 µM (inactive),> 100 µM (inactive),17.4 µM (inactive),> 50 µM (inactive),58.1 µM (inactive)
CC(=O)c1[nH]c(NCc2ccccc2)c(C(=S)Nc2ccccc2)c1N,14.9 µM (inactive),27 µM (inactive),28.8 µM (inactive),17.1 µM (inactive),18.9 µM (inactive),19.1 µM,> 100 µM (inactive),22.5 µM (inactive),25.6 µM (inactive),18.6 µM (inactive),5.32 µM (inactive),24 µM (inactive),32.1 µM (inactive),22.8 µM (inactive),22 µM (inactive),18.9 µM (inactive),16.6 µM (inactive),26.7 µM (inactive),21.5 µM (inactive),1.88 µM (inactive)
COc1cc2c3c(c1OC)C1(C=CC(=O)C=C1)CC3NCC2 (stereo not given),> 100 µM (inactive),> 100 µM (inactive),> 100 µM (inactive),> 100 µM (inactive),89.7 µM (inactive),> 100 µM,80.5 µM (inactive),> 100 µM (inactive),> 100 µM (inactive),> 100 µM (inactive),32.6 µM (inactive),> 100 µM (inactive),> 100 µM (inactive),> 100 µM (inactive),> 100 µM (inactive),> 100 µM (inactive),> 100 µM (inactive),> 100 µM (inactive),> 100 µM (inactive),> 100 µM (inactive)
